MIC data for 5 compounds are collected here from paper PMC9413440, “An Iterative Approach Guides Discovery of the FabI Inhibitor Fabimycin, a Late-Stage Antibiotic Candidate with In Vivo Efficacy against Drug-Resistant Gram-Negative Infections” (ACS Central Science, 2022).

One assay has as its system A. baumannii AR-0313. Put plainly: MIC, broth microdilution (CLSI). To be noted: Acinetobacter baumannii, AR0313; A. baumannii AR-0313 clinical isolate; † = dose-independent trailing growth. It is filed as cell-based. As for the experimental part:
(§1) II. Materials and Methods for Biological Experiments
(§2) S. aureus ATCC 29213 and E. coli MG1655 were obtained from the American Type Culture Collection (ATCC). E. coli BW25113 and E. coli JW5503 were obtained from the Keio Collection. AR-bank strains were obtained from the Centers for Disease Control and Prevention and FDA Antibiotic Resistance Isolate Bank.
(§3) Antimicrobial susceptibility tests
(§4) Susceptibility testing was performed in biological triplicate, unless noted otherwise, using the micro-dilution broth method as outlined by the Clinical and Laboratory Standards Institute. Bacteria were cultured with cation-adjusted Mueller Hinton broth (Sigma Aldrich, catalogue number: 90922). […]
(§5) Error bars represent the standard error of the mean of three biological replicates. All compounds evaluated in biological assays were ≥95% pure.

The subject of a further assay is K. pneumoniae AR-0113. Put plainly: MIC, broth microdilution (CLSI). It is filed as cell-based. The following applies: Klebsiella pneumoniae, AR0113; K. pneumoniae AR-0113 clinical isolate. As for the experimental part:
as §1, §2, §3, §4, §5

A further assay has as its system E. coli ΔtolC (JW5503). The assay is described as follows: MIC, broth microdilution (CLSI). It is filed as cell-based, Escherichia coli. To be noted: Escherichia coli. As for the experimental part:
as §1, §2, §3, §4
(§6) NH3: m/z 391.2 → 171.0. Fabimycin: m/z 405.3 → 145.3. Power analysis was not used to determine the number of replicates. Error bars represent the standard error of the mean of three biological replicates. All compounds evaluated in biological assays were ≥95% pure.

For a further assay, the system named is K. pneumoniae BAA-2472. The assay is described as follows: MIC, broth microdilution (CLSI). The assay is classed as cell-based. To be noted: Klebsiella pneumoniae, BAA2472. As for the experimental part:
as §1, §2, §3, §4, §6

The test system of another assay is S. aureus ATCC 29213. Put plainly: MIC, broth microdilution (CLSI). The assay is classed as cell-based. To be noted: Staphylococcus aureus, ATCC29213; S. aureus 29213. As for the experimental part: as §1, §2, §3, §4, §6
The test system of a further assay is A. baumannii AR-0273. The assay is described as follows: MIC, broth microdilution (CLSI). The assay is classed as cell-based. The following applies: Acinetobacter baumannii, AR0273; A. baumannii AR-0273 clinical isolate. As for the experimental part:
as §1, §2, §3, §4, §6

Another assay deals with E. coli AR-0048. Put plainly: MIC, broth microdilution (CLSI). It is filed as cell-based. To be noted: Escherichia coli, AR0048; E. coli AR-0048 clinical isolate. As for the experimental part: as §1, §2, §3, §4, §6
In a further assay the test system is E. coli AR-0085. Put plainly: MIC, broth microdilution (CLSI). The following applies: Escherichia coli, AR0085; E. coli AR-0085 clinical isolate. It is filed as cell-based. As for the experimental part: as §1, §2, §3, §4, §6
Another assay has as its system K. pneumoniae AR-0066. The assay is described as follows: MIC, broth microdilution (CLSI). The following applies: Klebsiella pneumoniae, AR0066; K. pneumoniae AR-0066 clinical isolate. It is filed as cell-based. As for the experimental part: as §1, §2, §3, §4, §6
A further assay has as its system A. baumannii AR-0033. The assay is described as follows: MIC, broth microdilution (CLSI). To be noted: Acinetobacter baumannii, AR0033; A. baumannii AR-0033 clinical isolate; † = dose-independent trailing growth. The assay is classed as cell-based. As for the experimental part:
as §1, §2, §3, §4, §6

A further assay concerns K. pneumoniae AR-0560. The assay is described as follows: MIC, broth microdilution (CLSI). The assay is classed as cell-based. To be noted: Klebsiella pneumoniae, AR0560; K. pneumoniae AR-0560 clinical isolate. As for the experimental part:
as §1, §2, §3, §4, §6

A further assay concerns A. baumannii AR-0299. Put plainly: MIC, broth microdilution (CLSI). The assay is classed as cell-based. The following applies: Acinetobacter baumannii, AR0299; A. baumannii AR-0299 clinical isolate; † = dose-independent trailing growth. As for the experimental part:
as §1, §2, §3, §4, §6

The subject of the next assay is E. coli MG1655. The assay is described as follows: MIC, broth microdilution (CLSI). It is filed as cell-based. To be noted: Escherichia coli. As for the experimental part: as §1, §2, §3, §4, §6
Assay [1] relates to panel of 10 clinical isolates (two E. coli, four K. pneumoniae, four A. baumannii). Put plainly: MIC, Gram-negative clinical isolate challenge panel. The following applies: 10 clinical isolates; read-out: MIC, all strains of the clinical isolate challenge panel. The assay is classed as cell-based.

Structures are written as SMILES. In brackets after ≈: the same amount, converted by molar mass.

For `Cc1c(CN(C)C(=O)/C=C/c2cnc3c(c2)CC2(CC(N)C2)C(=O)N3)oc2ccccc12` (racemic) [(±)-3], the MIC in the assay with A. baumannii AR-0313 turned out to be 32 µg/mL (≈ 74.3 µM); with K. pneumoniae AR-0113, 16 µg/mL (≈ 37.2 µM); against E. coli ΔtolC (JW5503) it was 0.062 µg/mL (≈ 0.144 µM); in the assay on K. pneumoniae BAA-2472 it was 8 µg/mL (≈ 18.6 µM); against S. aureus ATCC 29213, 0.016 µg/mL (≈ 0.0372 µM); with A. baumannii AR-0273 it was 16 µg/mL (≈ 37.2 µM). In addition, the MIC came out at 16 µg/mL (≈ 37.2 µM) with E. coli AR-0048; 16 µg/mL (≈ 37.2 µM) against E. coli AR-0085; 8 µg/mL (≈ 18.6 µM) against K. pneumoniae AR-0066; 16 µg/mL (≈ 37.2 µM) against A. baumannii AR-0033; 8 µg/mL (≈ 18.6 µM) against K. pneumoniae AR-0560; 16 µg/mL (≈ 37.2 µM) in the assay on A. baumannii AR-0299. Further, the MIC with E. coli MG1655 came to 4 µg/mL (≈ 9.29 µM).
Consider `Cc1c(CN(C)C(=O)/C=C/c2cnc3c(c2)CC2(CC(CN)C2)C(=O)N3)oc2ccccc12` (racemic) [(±)-4], for which the minimum inhibitory concentration (MIC) worked out at 0.125 µg/mL (≈ 0.281 µM) with E. coli ΔtolC (JW5503), 0.031 µg/mL (≈ 0.0697 µM) in the assay with S. aureus ATCC 29213 and 16 µg/mL (≈ 36 µM) against E. coli MG1655.
`Cc1c(CN(C)C(=O)/C=C/c2cnc3c(c2)CC2(CCC(N)CC2)C(=O)N3)oc2ccccc12` (racemic) [(±)-5]: the figures for the MIC against E. coli ΔtolC (JW5503), in the assay with S. aureus ATCC 29213 and against E. coli MG1655 were 0.062 µg/mL (≈ 0.135 µM), 0.016 µg/mL (≈ 0.0349 µM) and 16 µg/mL (≈ 34.9 µM), respectively.
With `Cc1c(CN(C)C(=O)/C=C/c2cnc3c(c2)CC2(CCC(CN)CC2)C(=O)N3)oc2ccccc12` (racemic) [(±)-6], the minimum inhibitory concentration (MIC) with E. coli ΔtolC (JW5503) came to 0.062 µg/mL (≈ 0.131 µM); in the assay on S. aureus ATCC 29213 it was 0.031 µg/mL (≈ 0.0656 µM); in the assay on E. coli MG1655, 16 µg/mL (≈ 33.9 µM).
As for `Cc1c(CN(C)C(=O)/C=C/c2cnc3c(c2)CCC(N)C(=O)N3)oc2ccccc12` (racemic) [(±)-7], the MIC in the assay with A. baumannii AR-0313 is 8 µg/mL (≈ 19.8 µM); with K. pneumoniae AR-0113, 8 µg/mL (≈ 19.8 µM); in assay [1], at most 8 µg/mL; against E. coli ΔtolC (JW5503) it was 0.031 µg/mL (≈ 0.0766 µM); against K. pneumoniae BAA-2472, 8 µg/mL (≈ 19.8 µM); in the assay with S. aureus ATCC 29213 it was 0.016 µg/mL (≈ 0.0396 µM). In addition, the minimal inhibitory concentration (MIC) is 8 µg/mL (≈ 19.8 µM) in the assay on A. baumannii AR-0273; 4 µg/mL (≈ 9.89 µM) with E. coli AR-0048; 4 µg/mL (≈ 9.89 µM) in the assay on E. coli AR-0085; 8 µg/mL (≈ 19.8 µM) in the assay on K. pneumoniae AR-0066; 4 µg/mL (≈ 9.89 µM) against A. baumannii AR-0033; 8 µg/mL (≈ 19.8 µM) in the assay on K. pneumoniae AR-0560. In addition, the minimum inhibitory concentration (MIC) in the assay with A. baumannii AR-0299 and in the assay with E. coli MG1655 was 4 µg/mL (≈ 9.89 µM) in each case.
